Measurements reported in PubChem BioAssay (NCI).
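Growth conditions: 96-well plates. Treatment: test compound, 48 hours, 5 concentrations. Analysis: linear interpolation between bracketing concentrations; unreached endpoints set to highest concentration. At the GI50, growth is halved. TGI marks complete inhibition of growth.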

What was measured:
Test in all cases: NCI anticancer screen, dose series, 48 h
SK-MEL-28 melanoma = tested on: SK-MEL-28 melanoma
SNB-19 CNS = tested on: SNB-19 CNS
CAKI-1 renal = tested on: CAKI-1 renal
HS 578T breast = tested on: HS 578T breast
RPMI-8226 leukemia = tested on: RPMI-8226 leukemia
NCI-H226 lung = tested on: NCI-H226 lung
ACHN renal = tested on: ACHN renal
OVCAR-8 ovarian = tested on: OVCAR-8 ovarian
HCT-116 colon = tested on: HCT-116 colon
MALME-3M melanoma = tested on: MALME-3M melanoma
U251 CNS = tested on: U251 CNS
HT29 colon = tested on: HT29 colon
HCC-2998 colon = tested on: HCC-2998 colon
SR leukemia = tested on: SR leukemia
NCI-H460 lung = tested on: NCI-H460 lung
EKVX NSCLC = tested on: EKVX NSCLC
BT-549 breast = tested on: BT-549 breast
HOP-62 NSCLC = tested on: HOP-62 NSCLC
SK-OV-3 ovarian = tested on: SK-OV-3 ovarian
OVCAR-3 ovarian = tested on: OVCAR-3 ovarian
DU-145 prostate = tested on: DU-145 prostate
OVCAR-4 ovarian = tested on: OVCAR-4 ovarian
RXF 393 renal = tested on: RXF 393 renal
HL-60(TB) leukemia = tested on: HL-60(TB) leukemia
786-0 renal = tested on: 786-0 renal
COLO 205 colon = tested on: COLO 205 colon
NCI/ADR-RES ovarian = tested on: NCI/ADR-RES ovarian
HCT-15 colon = tested on: HCT-15 colon
UACC-62 melanoma = tested on: UACC-62 melanoma
A549 NSCLC = tested on: A549 NSCLC
PC-3 prostate = tested on: PC-3 prostate
SF-268 CNS = tested on: SF-268 CNS
OVCAR-5 ovarian = tested on: OVCAR-5 ovarian
SW-620 colon = tested on: SW-620 colon
SN12C renal = tested on: SN12C renal
K-562 leukemia = tested on: K-562 leukemia
SK-MEL-5 melanoma = tested on: SK-MEL-5 melanoma
IGROV1 ovarian = tested on: IGROV1 ovarian
MDA-MB-435 = tested on: MDA-MB-435
LOX IMVI melanoma = tested on: LOX IMVI melanoma
UO-31 renal = tested on: UO-31 renal
M14 melanoma = tested on: M14 melanoma
SNB-75 CNS = tested on: SNB-75 CNS
HOP-92 NSCLC = tested on: HOP-92 NSCLC
NCI-H522 lung = tested on: NCI-H522 lung
SF-295 CNS = tested on: SF-295 CNS
UACC-257 melanoma = tested on: UACC-257 melanoma
KM12 colon = tested on: KM12 colon
T-47D breast = tested on: T-47D breast
MCF7 breast = tested on: MCF7 breast
CCRF-CEM leukemia = tested on: CCRF-CEM leukemia
A498 renal = tested on: A498 renal
SF-539 CNS = tested on: SF-539 CNS
TK-10 renal = tested on: TK-10 renal
SK-MEL-2 melanoma = tested on: SK-MEL-2 melanoma
NCI-H23 lung = tested on: NCI-H23 lung
MDA-MB-231 breast = tested on: MDA-MB-231 breast

CC1CN=C(c2cccc(-c3ccc(-c4ccccc4)o3)c2)N1 (centres undefined)
GI50 (SK-MEL-28 melanoma): 1810 nM
TGI (SK-MEL-28 melanoma): 4.02 µM
GI50 (SNB-19 CNS): 2290 nM
TGI (SNB-19 CNS): 5.47 µM
GI50 (CAKI-1 renal): 2550 nM
TGI (CAKI-1 renal): 9.19 µM
GI50 (HS 578T breast): 2570 nM
TGI (HS 578T breast): 7.26 µM
GI50 (RPMI-8226 leukemia): 2430 nM
TGI (RPMI-8226 leukemia): 7.05 µM
GI50 (NCI-H226 lung): 14.3 µM
TGI (NCI-H226 lung): 39.4 µM
GI50 (ACHN renal): 1850 nM
TGI (ACHN renal): 3.89 µM
GI50 (OVCAR-8 ovarian): 5.98 µM
TGI (OVCAR-8 ovarian): 23.2 µM
GI50 (HCT-116 colon): 1810 nM
TGI (HCT-116 colon): 3.69 µM
GI50 (MALME-3M melanoma): 1820 nM
TGI (MALME-3M melanoma): 3.63 µM
GI50 (U251 CNS): 2470 nM
TGI (U251 CNS): 5.88 µM
GI50 (HT29 colon): 2390 nM
TGI (HT29 colon): 4.93 µM
GI50 (HCC-2998 colon): 1950 nM
TGI (HCC-2998 colon): 3.65 µM
GI50 (SR leukemia): 1860 nM
TGI (SR leukemia): 5.32 µM
GI50 (NCI-H460 lung): 1830 nM
TGI (NCI-H460 lung): 4.24 µM
GI50 (EKVX NSCLC): 4.35 µM
TGI (EKVX NSCLC): 18.9 µM
GI50 (BT-549 breast): 10.5 µM
TGI (BT-549 breast): 22.5 µM
GI50 (HOP-62 NSCLC): 2600 nM
TGI (HOP-62 NSCLC): 6.37 µM
GI50 (SK-OV-3 ovarian): 4.2 µM
TGI (SK-OV-3 ovarian): 14.8 µM
GI50 (OVCAR-3 ovarian): 3.47 µM
TGI (OVCAR-3 ovarian): 13.7 µM
GI50 (DU-145 prostate): 4.05 µM
TGI (DU-145 prostate): 15.8 µM
GI50 (OVCAR-4 ovarian): 3.01 µM
TGI (OVCAR-4 ovarian): 19.5 µM
GI50 (RXF 393 renal): 1720 nM
TGI (RXF 393 renal): 3.36 µM
GI50 (HL-60(TB) leukemia): 2280 nM
TGI (HL-60(TB) leukemia): 4.7 µM
GI50 (786-0 renal): 1840 nM
TGI (786-0 renal): 3.8 µM
GI50 (COLO 205 colon): 1610 nM
TGI (COLO 205 colon): 3.25 µM
GI50 (NCI/ADR-RES ovarian): 3.57 µM
TGI (NCI/ADR-RES ovarian): 25.9 µM
GI50 (HCT-15 colon): 1660 nM
TGI (HCT-15 colon): 3.47 µM
GI50 (UACC-62 melanoma): 1940 nM
TGI (UACC-62 melanoma): 4.06 µM
GI50 (A549 NSCLC): 3.68 µM
TGI (A549 NSCLC): 11.2 µM
GI50 (PC-3 prostate): 2040 nM
TGI (PC-3 prostate): 5.17 µM
GI50 (SF-268 CNS): 1830 nM
TGI (SF-268 CNS): 3.78 µM
GI50 (OVCAR-5 ovarian): 2110 nM
TGI (OVCAR-5 ovarian): 5.41 µM
GI50 (SW-620 colon): 1850 nM
TGI (SW-620 colon): 3.69 µM
GI50 (SN12C renal): 3.59 µM
TGI (SN12C renal): 15.4 µM
GI50 (K-562 leukemia): 1720 nM
TGI (K-562 leukemia): 3.91 µM
GI50 (SK-MEL-5 melanoma): 1710 nM
TGI (SK-MEL-5 melanoma): 3.11 µM
GI50 (IGROV1 ovarian): 2080 nM
TGI (IGROV1 ovarian): 5.14 µM
GI50 (MDA-MB-435): 1610 nM
TGI (MDA-MB-435): 2990 nM
GI50 (LOX IMVI melanoma): 1730 nM
TGI (LOX IMVI melanoma): 3.22 µM
GI50 (UO-31 renal): 1620 nM
TGI (UO-31 renal): 3.32 µM
GI50 (M14 melanoma): 2230 nM
TGI (M14 melanoma): 5.63 µM
GI50 (SNB-75 CNS): 1470 nM
TGI (SNB-75 CNS): 2840 nM
GI50 (HOP-92 NSCLC): 2130 nM
TGI (HOP-92 NSCLC): 5.67 µM
GI50 (NCI-H522 lung): 1670 nM
TGI (NCI-H522 lung): 3.65 µM
GI50 (SF-295 CNS): 1810 nM
TGI (SF-295 CNS): 3.84 µM
GI50 (UACC-257 melanoma): 2310 nM
TGI (UACC-257 melanoma): 4.62 µM
GI50 (KM12 colon): 2660 nM
TGI (KM12 colon): 7.92 µM
GI50 (T-47D breast): 1920 nM
TGI (T-47D breast): 5.05 µM
GI50 (MCF7 breast): 1710 nM
TGI (MCF7 breast): 3.59 µM
GI50 (CCRF-CEM leukemia): 2440 nM
TGI (CCRF-CEM leukemia): 6.78 µM
GI50 (A498 renal): 2740 nM
TGI (A498 renal): 10.6 µM
GI50 (SF-539 CNS): 1760 nM
TGI (SF-539 CNS): 3.42 µM
GI50 (TK-10 renal): 4.04 µM
TGI (TK-10 renal): 14.4 µM
GI50 (SK-MEL-2 melanoma): 1740 nM
TGI (SK-MEL-2 melanoma): 3.57 µM
GI50 (NCI-H23 lung): 2970 nM
TGI (NCI-H23 lung): 12.5 µM
GI50 (MDA-MB-231 breast): 2200 nM
TGI (MDA-MB-231 breast): 4.49 µM
